Like-named read-outs stand apart in the source and are kept apart here.
Tests used:
[1] = biological target: T1, ASGPR receptor on the cell surface (HepG2 cells) (Homo sapiens, UniProt P07306); assay: Ternary complex formation assay (flow cytometry, HepG2); assay type: cell-based
T1 construct: host or cells: HepG2
T1 sequence (P07306 1-291): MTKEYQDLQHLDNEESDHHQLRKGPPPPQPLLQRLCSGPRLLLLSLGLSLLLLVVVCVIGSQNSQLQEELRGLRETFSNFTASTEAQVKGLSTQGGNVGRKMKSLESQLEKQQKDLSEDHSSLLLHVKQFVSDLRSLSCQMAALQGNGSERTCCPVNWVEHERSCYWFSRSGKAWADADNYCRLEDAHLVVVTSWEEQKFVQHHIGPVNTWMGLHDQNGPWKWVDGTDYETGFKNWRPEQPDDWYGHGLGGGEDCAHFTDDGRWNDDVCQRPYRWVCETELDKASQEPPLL
T1 sequence (P07307 1-311 partner): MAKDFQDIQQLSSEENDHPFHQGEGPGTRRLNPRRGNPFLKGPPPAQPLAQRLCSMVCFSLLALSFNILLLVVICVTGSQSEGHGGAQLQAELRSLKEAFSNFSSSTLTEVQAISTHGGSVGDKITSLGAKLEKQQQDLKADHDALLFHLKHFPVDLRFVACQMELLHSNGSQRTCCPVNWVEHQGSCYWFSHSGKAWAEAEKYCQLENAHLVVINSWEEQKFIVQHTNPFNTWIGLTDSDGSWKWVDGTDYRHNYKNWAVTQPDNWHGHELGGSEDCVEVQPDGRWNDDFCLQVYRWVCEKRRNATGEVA
Source text: The ternary complex formation assay is designed to identify the concentration of Degrader required to form a complex between the degrader, a constant concentration of fluorescently-labeled antibody and the ASGPR receptor on the cell surface. The peak mean fluorescence intensity (MFI) occurs at the optimal degrader concentration for ternary complex formation. Sub-optimal concentrations of degrader (too much or too little) results in fewer complexes formed and a reduced […].
Human IgG (Sigma-Aldrich, 14506) was covalently labeled with Alexa Fluor 488 using the Alexa Fluor™ 488 Protein Labeling Kit (Thermo Fisher, A10235) following the manufacturer's instructions. HepG2 cells (ATCC, HIB-8065) were cultured to about 70% confluence and harvested by trypsinization. Single cell suspensions of HepG2 cells were plated in 96 well plates at 1×10^5 cells/well in cell culture media (DMEM supplemented with […]) and placed at 4° C. For studies using human IgG, cells were incubated with 100 nM AF488-labeled anti-human IgG and serial dilutions of IgG-based degrader for 1 hour at 4° C. For studies using DNP, cells were incubated with 100 nM AF488-labeled polyclonal rabbit anti-dinitrophenyl (DNP) antibodies (ThermoFisher) and serial dilutions of DNP-based degrader for 1 hour at 4° C. After washing once with ice-cold PBS containing 0.1% BSA and 0.1% sodium azide, cells were resuspended in 150 uL PBS+0.1% BSA and cell-associated AF488 fluorescence was measured by flow cytometry using the iQue® Screener PLUS Flow Cytometer (IntelliCyt).

HepG2 cells = assay: Cellular uptake assay of AF488-labeled antibody (HepG2); assay type: cell-based
Experimental: The cellular uptake assay is designed to measure compound-mediated cellular uptake of fluorescently labeled antibody following ternary complex formation with the ASGPR receptor and endocytosis of the entire complex into cells.
Human IgG (Sigma-Aldrich, 14506) was covalently labeled with Alexa Fluor 488 using the Alexa Fluor™ 488 Protein Labeling Kit (Thermo Fisher, A10235) following the manufacturer's instructions. HepG2 cells were plated in DMEM supplemented with 10% FBS at 5,000 cells per well in a 96-well microtiter plate and incubated for approximately 18 hours at 37° C./5% CO2. For studies using human IgG, 100 nM AF488-labeled human IgG antibodies and serial dilutions of IgG-based degrader (0.1% DMSO final concentration) were added to the cells and the mixture was incubated at 37° C. for 6 hours. For studies using DNP, 100 nM AF488-labeled DNP antibodies and serial dilutions of DNP-based degrader (0.1% DMSO final concentration) were added to the cells and the mixture was incubated at 37° C. for 6 hours. HepG2 cells were fixed in 100% methanol at −20° C. for 20 min, washed 3× with PBS, then stained with DAPI (Thermo, Cat #H3570). HepG2 cells were imaged for DAPI and Alexa Fluor 488 using the Operetta CLS, high-content analysis system (PerkinElmer). Data is presented as the ratio of the number of cells positive for hIgG or DNP (AF-488 fluorescence) over the total cell number (measured by DAPI).

IgG = assay: Affinity to IgG by surface plasmon resonance (SPR); assay type: binding
Experimental: Immobilization levels ranging from 1000-1300 resonance units (RU) are obtained. The running buffer is 10 mM HEPES, pH 7.4, 400 mM NaCl, 0.005% P20, […].

ASGPR = biological target: T2, ASGPR (Homo sapiens, UniProt P07306); assay: Affinity to ASGPR by surface plasmon resonance (SPR)
T2 sequence (P07306 1-291): T1 sequence (P07306 1-291)

[2] = HepG2 cells, 100 nM AF488-labeled antibody, 37° C. for 6 hours, class symbols, read-out: Uptake Assay EC50
[3] = HepG2 cells, read-out: Uptake EC50

SMILES: O=C(CCOCC(COCCC(=O)NCCOCCOCCOCCOC[C@@]12CO[C@@H](O1)[C@H](NC(=O)C(F)(F)F)[C@@H](O)[C@H]2O)NC(=O)COCCOCCOCCNc1ccccc1)NCCOCCOCCOCCOC[C@@]12CO[C@@H](O1)[C@H](NC(=O)C(F)(F)F)[C@@H](O)[C@H]2O [A12, 3,3′-((2-(2-(2-(2-(2-(phenylamino)ethoxy)ethoxy)ethoxy)acetamido)propane-1,3-diyl)bis(oxy))bis(N-(1-((1S,2R,3R,4R,5S)-2,3-dihydroxy-4-(2,2,2-trifluoroacetamido)-6,8-dioxabicyclo[3.2.1]octan-1-yl)-2,5,8,11-tetraoxatridecan-13-yl)propanamide)]
- EC50 ([1]; HepG2 cells, 100 nM AF488-labeled antibody, 1 hour at 4° C., numeric bounds, read-out: Ternary Complex EC50): > 10000 nM

SMILES: CC(C)C[C@@H]1NC(=O)[C@H](Cc2cnc[nH]2)NC(=O)[C@H](Cc2c[nH]c3ccccc23)NC(=O)[C@H](C)NC(=O)[C@@H](NC(=O)[C@@H](N)CC(=O)O)CSSC[C@@H](C(=O)N[C@H](C(N)=O)[C@@H](C)O)NC(=O)[C@H](Cc2c[nH]c3ccccc23)NC(=O)[C@H](C(C)C)NC(=O)[C@H](CC(C)C)NC(=O)[C@H](CCC(=O)NCCOCCOCCOCCOCCNC(=O)CCCc2cn(CCCCCC(=O)NC(COCCC(=O)NCCOCCOCCOCCOC[C@H]3OC[C@H](Nc4nccc(C(F)(F)F)n4)[C@@H](O)[C@H]3O)COCCC(=O)NCCOCCOCCOCCOC[C@H]3OC[C@H](Nc4nccc(C(F)(F)F)n4)[C@@H](O)[C@H]3O)nn2)NC(=O)CNC1=O [Compound 2]
- EC50 [1]: < 100 nM
- EC50 (HepG2 cells; [2]): 100 to 500 nM

SMILES: CC(C)C[C@@H]1NC(=O)[C@H](Cc2c[nH]cn2)NC(=O)[C@H](Cc2c[nH]c3ccccc23)NC(=O)[C@H](C)NC(=O)[C@@H](NC(=O)[C@@H](N)CC(=O)O)CSSC[C@@H](C(=O)N[C@H](C(N)=O)[C@@H](C)O)NC(=O)[C@H](Cc2c[nH]c3ccccc23)NC(=O)[C@H](C(C)C)NC(=O)[C@H](CC(C)C)NC(=O)[C@H](CCC(=O)NCCOCCOCCOCCOCCNC(=O)CCCc2cn(CCCCCC(=O)NC(COCCC(=O)NCCOCCOCCOCCOC[C@@]34CO[C@@H](O3)[C@H](Nc3nc(Cl)ns3)[C@@H](O)[C@H]4O)COCCC(=O)NCCOCCOCCOCCOC[C@@]34CO[C@@H](O3)[C@H](Nc3nc(Cl)ns3)[C@@H](O)[C@H]4O)nn2)NC(=O)CNC1=O [Compound 3]
- EC50 [1]: < 100 nM
- EC50 ([1]; read-out: Ternary Complex EC50): < 100 nM
- EC50 (HepG2 cells; [2]): 500 to 1000 nM
- EC50 (HepG2 cells; [3]): < 100 nM

SMILES: CC(C)C[C@@H]1NC(=O)[C@H](Cc2c[nH]cn2)NC(=O)[C@H](Cc2c[nH]c3ccccc23)NC(=O)[C@H](C)NC(=O)[C@@H](NC(=O)[C@H](CC(=O)O)NC(=O)CCOCCOCCOCCOCCNC(=O)CCCc2cn(CCCCCC(=O)NC(COCCC(=O)NCCOCCOCCOCCOC[C@H]3OC[C@H](Nc4nccc(C(F)(F)F)n4)[C@@H](O)[C@H]3O)COCCC(=O)NCCOCCOCCOCCOC[C@H]3OC[C@H](Nc4nccc(C(F)(F)F)n4)[C@@H](O)[C@H]3O)nn2)CSSC[C@@H](C(=O)N[C@H](C(N)=O)[C@@H](C)O)NC(=O)[C@H](Cc2c[nH]c3ccccc23)NC(=O)[C@H](C(C)C)NC(=O)[C@H](CC(C)C)NC(=O)[C@H](CCC(=O)O)NC(=O)CNC1=O [Compound 22]
- Kd (IgG; read-out: IgG KD): < 100 nM
- Kd (IgG; read-out: IgG SPR Binding Kd): < 100 nM
- EC50 (HepG2 cells; read-out: Uptake Assay EC50): < 100 nM
- EC50 (HepG2 cells; read-out: Uptake EC50): < 100 nM

SMILES: CC(C)C[C@@H]1NC(=O)[C@H](Cc2cnc[nH]2)NC(=O)[C@H](Cc2c[nH]c3ccccc23)NC(=O)[C@H](C)NC(=O)[C@@H]2CSSC[C@H](NC(=O)[C@H](Cc3c[nH]c4ccccc34)NC(=O)[C@H](C(C)C)NC(=O)[C@H](CC(C)C)NC(=O)[C@H](CCC(=O)O)NC(=O)CNC1=O)C(=O)N[C@@H]([C@@H](C)O)C(=O)N1CCC[C@@H]1C(=O)N1C[C@@H](NC(=O)COCCOCCOCCOC[C@H]3OC[C@H](Nc4nccc(C(F)(F)F)n4)[C@@H](O)[C@H]3O)C[C@H]1C(=O)N[C@@H](CC(=O)O)C(=O)N2 [Compound 60]
- Kd (IgG; Biacore 8K, 25° C., IgG on CM5 chip, read-out: IgG SPR Binding Kd): < 100 nM
- EC50 ([1]; HepG2 cells, 100 nM AF488-labeled antibody, 1 hour at 4° C., class symbols, read-out: Ternary Complex EC50): < 100 nM

SMILES: CC(C)C[C@@H]1NC(=O)[C@H](Cc2c[nH]cn2)NC(=O)[C@H](Cc2c[nH]c3ccccc23)NC(=O)[C@H](C)NC(=O)[C@@H]2CSSC[C@H](NC(=O)[C@H](Cc3c[nH]c4ccccc34)NC(=O)[C@H](C(C)C)NC(=O)[C@H](CC(C)C)NC(=O)[C@H](CCC(=O)O)NC(=O)CNC1=O)C(=O)N[C@@H]([C@@H](C)O)C(=O)N1CCC[C@@H]1C(=O)N1C[C@@H](NC(=O)CNC(COCCC(=O)NCCOCCOCCOCCOC[C@H]3OC[C@H](Nc4cncc(C(F)(F)F)n4)[C@@H](O)[C@H]3O)COCCC(=O)NCCOCCOCCOCCOC[C@H]3OC[C@H](Nc4cncc(C(F)(F)F)n4)[C@@H](O)[C@H]3O)C[C@H]1C(=O)N[C@@H](CC(=O)O)C(=O)N2 [Compound 74]
- Kd (IgG; SPR, read-out: IgG KD): < 100 nM
- EC50 (HepG2 cells; [3]): < 100 nM

SMILES: CC(C)C[C@@H]1NC(=O)[C@H](Cc2c[nH]cn2)NC(=O)[C@H](Cc2c[nH]c3ccccc23)NC(=O)[C@H](C)NC(=O)[C@@H]2CSSC[C@H](NC(=O)[C@H](Cc3c[nH]c4ccccc34)NC(=O)[C@H](C(C)C)NC(=O)[C@H](CC(C)C)NC(=O)[C@H](CCC(=O)O)NC(=O)CNC1=O)C(=O)N[C@@H]([C@@H](C)O)C(=O)N1CCC[C@@H]1C(=O)N1C[C@@H](NC(=O)CCOCCOCCOCCOCCNC(=O)CCCc3cn(CCCCCC(=O)NC(COCCC(=O)NCCOCCOCCOCCOC[C@H]4OC[C@H](Nc5nccc(C(F)(F)F)n5)[C@@H](O)[C@H]4O)(COCCC(=O)NCCOCCOCCOCCOC[C@H]4OC[C@H](Nc5nccc(C(F)(F)F)n5)[C@@H](O)[C@H]4O)COCCC(=O)NCCOCCOCCOCCOC[C@H]4OC[C@H](Nc5nccc(C(F)(F)F)n5)[C@@H](O)[C@H]4O)nn3)C[C@H]1C(=O)N[C@@H](CC(=O)O)C(=O)N2 [Compound 86]
- EC50 ([1]; HepG2 cells, ternary complex formation, read-out: TCF EC50): < 100 nM
- Kd (ASGPR): < 100 nM

SMILES: CC(C)C[C@@H]1NC(=O)[C@H](Cc2cnc[nH]2)NC(=O)[C@H](Cc2c[nH]c3ccccc23)NC(=O)[C@H](C)NC(=O)[C@@H]2CSSC[C@H](NC(=O)[C@H](Cc3c[nH]c4ccccc34)NC(=O)[C@H](C(C)C)NC(=O)[C@H](CC(C)C)NC(=O)[C@H](CCC(=O)O)NC(=O)CNC1=O)C(=O)N[C@@H]([C@@H](C)O)C(=O)N1CCC[C@@H]1C(=O)N1C[C@H](NC(=O)CNC(COCCC(=O)NCCOCCOCCOCCOC[C@H]3OC[C@H](Nc4cncc(C(F)(F)F)n4)[C@@H](O)[C@H]3O)COCCC(=O)NCCOCCOCCOCCOC[C@H]3OC[C@H](Nc4cncc(C(F)(F)F)n4)[C@@H](O)[C@H]3O)C[C@H]1C(=O)N[C@@H](CC(=O)O)C(=O)N2 [Compound 92]
- Kd (IgG; SPR, read-out: IgG KD): < 100 nM
- EC50 (HepG2 cells; [3]): < 100 nM

Reference: patent US12091402B2 (Avilar Therapeutics, Inc., priority 2021, dated 2024)
